Measurements as given in patent US20250206729A1, “DUAL RAF AND TUBULIN INHIBITORS AND METHODS OF USE THEREOF” (Deciphera Pharmaceuticals, LLC, priority 2023, published 2025).

Key:
[1] = target: T1, B-Raf kinase (SEQ ID NO: 1) (Homo sapiens, UniProt P15056); test: Biochemical assay for B-Raf (coupled pyruvate kinase/lactate dehydrogenase); settings: 1 mM ATP; read-out: BRAF (inhibition of biochemical activity, IC50)
T1 construct: GST (N); purchased Sigma

[2] = target: T2, C-Raf kinase (SEQ ID NO: 2) (Homo sapiens, UniProt P04049, Y340D/Y341D); test: Biochemical assay for C-Raf (coupled pyruvate kinase/lactate dehydrogenase); settings: 1 mM ATP; read-out: CRAF (inhibition of biochemical activity, IC50)
T2 construct: C-Raf residues 306-end; Y340D, Y341D with N-; GST (N); purchased Sigma

MiaPaca-2 cells = test: MiaPaca-2 cell proliferation assay; type: cell-based; settings: Homo sapiens, MIA PaCa-2; 67-72 h incubation, resazurin; read-out: MiaPaca-2 (inhibition of cell proliferation, IC50)
Method: Miapaca-2 cells (catalog #CRL-1420) are obtained from the American Type Culture Collect (ATTC, Manassas, VA). Briefly, cells were grown in DMEM supplemented with 10% characterized fetal bovine serum (Invitrogen, Carlsbad, CA), 2.5% New Zealand sourced horse serum and 1% Penicillin/Streptomycin/L-Glutamine at 37° C., 5% CO2, and 95% humidity. Cells are expanded until reaching 70-95% confluency at which point they are sub-cultured or harvested for assay use. A serial dilution of test compound is dispensed into a 384-well black clear bottom plate in triplicate. Seven hundred fifty cells are added per well in 50 μL complete growth medium in the 384-well plate. Plates are incubated for 67-72 h at 37° C., 5% CO2, and 95% humidity. At the end of the incubation, 10 μL of a 440 μM solution of resazurin (Sigma, St. Louis, MO) in PBS is added to each well of the plate and plates are incubated for an additional 5-6 h at 37° C., 5% CO2, and 95% humidity. Plates are read on a Synergy2 or equivalent reader (Biotek, Winooski VT) using an excitation of 540 nm and an emission of 600 nm. Data is analyzed using Prism software (GraphPad, San Diego, CA) to calculate IC50 values.

HCT-116 cells = test: HCT-116 cell proliferation assay; type: cell-based; settings: Homo sapiens, HCT-116; 67 to 72 h incubation, resazurin; read-out: HCT-116 (inhibition of cell proliferation, IC50)
Method: HCT-116 cells (catalog #CCL-247) are obtained from the American Type Culture Collect (ATCC, Manassas, VA). Briefly, cells are grown in McCoy's 5A supplemented with 10% characterized fetal bovine serum (Invitrogen, Carlsbad, CA) and 1% Penicillin/Streptomycin/L-Glutamine at 37° C., 5% CO2, and 95% humidity. Cells are expanded until reaching 70-95% confluency at which point they are sub-cultured or harvested for assay use. A serial dilution of test compound is dispensed into a 384-well black clear bottom plate in triplicate. 375 cells are added per well in 50 μL complete growth medium in the 384-well plate. Plates are incubated for 67 to 72 h at 37° C., 5% CO2, and 95% humidity. At the end of the incubation, 40 μL of a […] solution of resazurin (Sigma, St. Louis, MO) in PBS is added to each well of the plate and plates are incubated for an additional 4 to 5 h at 37° C., 5% CO2, and 95% humidity. Plates are read on a Synergy2 or equivalent reader (Biotek, Winooski, VT) using an excitation of 540 nm and an emission of 600 nm. Data is analyzed using Prism software (Graphpad, San Diego, CA) to calculate IC50 values.

HPAF-II cells = test: HPAF-II cell proliferation assay; type: cell-based; settings: Homo sapiens, HPAF-II; 115 to 120 h incubation, resazurin; read-out: HPAF-II (inhibition of cell proliferation, IC50)
Method: (§1) HPAF-II cells (catalog #CRL-1997) are obtained from the American Type Culture Collect (ATCC, Manassas, VA). Briefly, cells are grown in Minimum Essential Media supplemented with 10% characterized fetal bovine serum (Invitrogen, Carlsbad, CA) and 1% Penicillin/Streptomycin/L-Glutamine at 37° C., 5% CO2, and 95% humidity. Cells are expanded until reaching 70-95% confluency at which point they are sub-cultured or harvested for assay use. A serial dilution of test compound is dispensed into a 384-well black clear bottom plate in triplicate. 750 cells are added per well in 50 μL complete growth medium in the 384-well plate. Plates are incubated for 115 to 120 h at 37° C., 5% CO2, and 95% humidity. At the end of the incubation, 40 μL of a […] solution of resazurin (Sigma, St. Louis, MO) in PBS is added to each well of the plate and plates are incubated for an additional 18 to 24 h at 37° C., 5% CO2, and 95% humidity. Plates are read on a Synergy2 or equivalent reader (Biotek, Winooski, VT) using an excitation of 540 nm and an emission of 600 nm. Data is analyzed using Prism software (Graphpad, San Diego, CA) to calculate IC50 values.

Pa16c cells = test: Pa16c cell proliferation assay; type: cell-based; settings: 67 to 72 h incubation, resazurin; read-out: Pa16c (inhibition of cell proliferation, IC50)
Method: as §1, with “Pa16c” for “HPAF-II”, “cells” for “cells (catalog #CRL-1997)”, “Dr. Channing Der, University of North Carolina at Chapel Hill.” for “the American Type Culture Collect (ATCC, Manassas, VA).”, “Dulbecco's Modified Eagle Medium” for “Minimum Essential Media”, “67” for “115”, “72” for “120”

T2 sequence (P04049 307-648 Y340D/Y341D): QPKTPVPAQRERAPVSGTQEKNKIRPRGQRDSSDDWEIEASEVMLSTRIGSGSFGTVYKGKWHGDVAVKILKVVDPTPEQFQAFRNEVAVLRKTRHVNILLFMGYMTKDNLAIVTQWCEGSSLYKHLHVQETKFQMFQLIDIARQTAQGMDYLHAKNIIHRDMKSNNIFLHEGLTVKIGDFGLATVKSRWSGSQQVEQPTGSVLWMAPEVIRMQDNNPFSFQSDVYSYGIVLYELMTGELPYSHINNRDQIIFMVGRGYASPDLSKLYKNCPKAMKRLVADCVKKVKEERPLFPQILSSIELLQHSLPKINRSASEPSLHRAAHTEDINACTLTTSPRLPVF
T1 sequence (P15056 416-766): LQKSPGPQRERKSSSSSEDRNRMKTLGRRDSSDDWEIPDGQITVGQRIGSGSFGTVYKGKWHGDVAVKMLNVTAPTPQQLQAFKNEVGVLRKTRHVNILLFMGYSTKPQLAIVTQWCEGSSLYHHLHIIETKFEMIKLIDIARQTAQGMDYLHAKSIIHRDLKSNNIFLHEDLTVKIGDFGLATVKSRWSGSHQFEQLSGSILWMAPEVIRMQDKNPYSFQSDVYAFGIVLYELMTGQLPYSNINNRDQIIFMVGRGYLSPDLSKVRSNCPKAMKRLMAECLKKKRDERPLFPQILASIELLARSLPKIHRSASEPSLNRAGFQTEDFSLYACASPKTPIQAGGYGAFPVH

SMILES | IC50 [1] [nM] | IC50 [2] [nM] | IC50 (MiaPaca-2 cells) [nM] | IC50 (HCT-116 cells) [nM] | IC50 (HPAF-II cells) [nM] | IC50 (Pa16c cells) [nM]
Cc1ccc(NC(=O)c2cc(C3CCC3)cnn2)cc1-c1cc(OCCO)nc(N2CCOCC2)c1 [Example 50] | < 100 | < 100 | < 100 | < 100 | < 100 | < 100
Cc1ccc(NC(=O)c2cc(Cl)cnn2)cc1-c1ccnc(N2CCOCC2)c1 [Example 51] | 1000 to 10000 | 500 to 1000 | 1000 to 10000 | 500 to 1000 | 500 to 1000 | 1000 to 10000
Cc1ccc(NC(=O)c2cc(C3CC3)cnn2)cc1-c1nccc(N2CCOCC2)n1 [Example 52] | 1000 to 10000 | 1000 to 10000 | 1000 to 10000 | 1000 to 10000 | 1000 to 10000 | 1000 to 10000
C=C(C)c1cncc(C(=O)Nc2ccc(C)c(-c3cc(N[C@H](C)CO)nc(N4CCOCC4)c3)c2)n1 [Example 53] | < 100 | < 100 | 1000 to 10000 | 1000 to 10000 | 1000 to 10000 | 1000 to 10000
Cc1ccc(NC(=O)c2cnc(C(C)C)nc2)cc1-c1cc(N[C@H](C)CO)nc(N2CCOCC2)c1 [Example 54] | 100 to 500 | < 100 | 1000 to 10000 | 1000 to 10000 | 1000 to 10000 | 1000 to 10000
Cc1ccc(NC(=O)c2cc(C3CC3)cnn2)cc1-c1cncc(N2CCOCC2)n1 [Example 55] | 1000 to 10000 | 500 to 1000 | 1000 to 10000 | 1000 to 10000 | 1000 to 10000 | 1000 to 10000
Cc1ccc(NC(=O)c2cc(C(C)C)cnn2)cc1-c1cncc(N2CCOCC2)n1 [Example 56] | 100 to 500 | 100 to 500 | 1000 to 10000 | 1000 to 10000 | 1000 to 10000 | 1000 to 10000
Cc1ccc(NC(=O)c2cncc(C(C)C)n2)cc1-c1cc(N[C@H](C)CO)nc(N2CCOCC2)c1 [Example 57, (R)—N-(3-(2-((1-hydroxypropan-2-yl)amino)-6-morpholinopyridin-4-yl)-4-methylphenyl)-6-isopropylpyrazine-2-carboxamide] | 100 to 500 | 100 to 500 | 1000 to 10000 | 1000 to 10000 | 1000 to 10000 | 1000 to 10000
Cc1ccc(NC(=O)c2cc(C(C)C)cnn2)cc1-c1ccnc(N2CCOCC2)c1 [Example 58] | 100 to 500 | < 100 | 500 to 1000 | 100 to 500 | 100 to 500 | 100 to 500
Cc1ccc(NC(=O)c2cc(C(F)(F)F)cnn2)cc1-c1cncc(N2CCOCC2)n1 [Example 59] | 1000 to 10000 | 1000 to 10000 | 500 to 1000 | 500 to 1000 | 500 to 1000 | 100 to 500
CNc1cc(-c2cc(NC(=O)c3cc(C4CC4)cnn3)ccc2C)cc(N2CCOCC2)n1 [Example 60] | 100 to 500 | < 100 | < 100 | < 100 | < 100 | < 100
CNc1cc(-c2cc(NC(=O)c3cc(C(F)(F)F)cnn3)ccc2C)cc(N2CCOCC2)n1 [Example 61] | < 100 | < 100 | < 100 | < 100 | < 100 | < 100
Cc1ccc(NC(=O)c2cncc(C3CC3)n2)cc1-c1cc(N[C@H](C)CO)nc(N2CCOCC2)c1 [Example 62] | 100 to 500 | < 100 | 1000 to 10000 | 1000 to 10000 | 1000 to 10000 | 1000 to 10000
Cc1ccc(NC(=O)c2cc(C(C)(F)F)cnn2)cc1-c1cc(OCCO)nc(N2CCOCC2)c1 [Example 63] | < 100 | < 100 | < 100 | < 100 | < 100 | < 100
Cc1ccc(NC(=O)c2cc(C(C)(F)F)cnn2)cc1-c1cc(NCCO)nc(N2CCOCC2)c1 [Example 64] | < 100 | < 100 | < 100 | < 100 | < 100 | < 100
Cc1ccc(NC(=O)c2cc(Cl)cnn2)cc1-c1cncc(N2CCOCC2)n1 [Example 65] | 1000 to 10000 | 1000 to 10000 | 1000 to 10000 | 1000 to 10000 | 1000 to 10000 | 1000 to 10000
Cc1ccc(NC(=O)c2cc(C(C)(F)F)cnn2)cc1-c1cc(N[C@H](C)CO)nc(N2CCOCC2)c1 [Example 66] | < 100 | < 100 | < 100 | < 100 | < 100 | < 100
Cc1ccc(NC(=O)c2cnc(N)nc2)cc1-c1cc(N[C@H](C)CO)nc(N2CCOCC2)c1 [Example 68] | 1000 to 10000 | 500 to 1000 | 1000 to 10000 | 1000 to 10000 | 1000 to 10000 | 1000 to 10000
Cc1ccc(NC(=O)c2cnc(Br)nc2)cc1-c1cc(N[C@H](C)CO)nc(N2CCOCC2)c1 [Example 69] | 1000 to 10000 | 1000 to 10000 | 1000 to 10000 | 1000 to 10000 | 1000 to 10000 | 1000 to 10000
Cc1ccc(NC(=O)c2cc(C3CC3)cnn2)cc1-c1cc(N[C@H](C)CO)nc(N2CCOCC2)c1 [Example 70] | < 100 | < 100 | < 100 | < 100 | < 100 | < 100
Cc1ccc(NC(=O)c2cc(Cl)cnn2)cc1-c1ccnc(N2CCOCC2)n1 [Example 71] | 1000 to 10000 | 1000 to 10000 | 100 to 500 | 1000 to 10000 | 1000 to 10000 | 1000 to 10000
Cc1ccc(NC(=O)c2cc(C(C)C)cnn2)cc1-c1cc(N2CCOCC2)ncn1 [Example 72] | 100 to 500 | 100 to 500 | 1000 to 10000 | 1000 to 10000 | 1000 to 10000 | 1000 to 10000
